In patent US12297186B2, “Benzylamide derivatives as inhibitors of transforming growth factor-beta receptor I/ALK5” (AGOMAB SPAIN, S.L.U., priority 2019, dated 2025):
Counter-ions that a name gives are not always drawn. Like-named read-outs stand apart in the source and are kept apart here. Values belong to the molecule of their own block, whether it stands above or below them.

Legend:
Human TGFβR-1 kinase = Human TGFβR-1 kinase (Homo sapiens (Human), UniProt P36897); test: In vitro enzyme assay: inhibition of TGFβR-1 kinase activity (ADP-Glo); assay type: biochemical
Experimental: In Vitro Enzyme Assay: Inhibition of TGFβR-1Kinase Activity
Human TGFβl R-1 inhibition experiments were carried out in a white 384-microplate low flange (Corning 3572) with ADP-Glo kinase Assay Kit (Promega V9101) and TGβR-1 Kinase Enzyme System (Promega V4092). […] The reaction mixture was incubated in gentle shaking for 120 min at RT, after incubation of 10 μL of ADP-Glo Reagent was added and incubated in gentle shaking for 40 min at RT. 20 μL of Kinase Detection Reagent was added and plate was incubated in gentle shaking for 30 min at RT. Luminiscence (1000 ms) was measured in Perkin Elmer EnSpire Multimode plate reader.

TGF-beta kinase (ALK-5) = TGF-beta kinase (ALK-5) (Homo sapiens (Human), UniProt P36897); test: Determination of the intracellular TGF-beta kinase activity (ALK-5), p-SMAD3 AlphaLISA in A549 cells; assay type: cell-based; settings: A549 cell line
Experimental: Determination of the Intracellular TGF-beta Kinase Activity (ALK-5)
The experiments were carried out in A549 cell line. 30000 cells were seeded in 200 μl of culture medium (Sigma D6046) supplemented with L-Glutamine (Sigma G7513), Penicillin/Streptomycin (Invitrogen 11058) and FBS (Sigma F9665) on a 96 wells microplate (Becton Dickinson 353072). After 16 hours medium waschanged to serum free medium.

[1] = Plasma pharmacokinetic assay, single oral administration; assay type: in vivo, male Sprague Dawley rats; settings: male, Sprague-Dawley, po; rat, P.O., 5 mg/kg, plasma
Experimental: Plasma Pharmacokinetic Assay
The objective of this study was to investigate the plasma pharmacokinetics of some compounds of the present invention in male Sprague Dawley rats following a single oral administration. Three rats per compound were used in this study. Animals were administered with suspension formulation of each compound in 0.5% Tween-80 and 99.5% NaCMC (0.5% w/v in RO Water) by oral route at 5 mg/kg. The blood samples were collected from set of three rats at each time point in labelled micro centrifuge tube containing K2EDTA solution as anticoagulant at 0.25, 0.5, 1, 2, 4, 6, 8, 12 and 24 hr (p.o.). Plasma samples were separated by centrifugation of whole blood and stored below −70±10° C. until bioanalysis. All samples were processed for analysis by protein precipitation using acetonitrile and analysed with fit-for-purpose LC-MS/MS method (LLOQ=1.01 ng/mL). Pharmacokinetic parameters were calculated using the non-compartmental analysis tool of Phoenix WinNonlin® (Version 7.0).

[2] = Identification study of metabolite; assay type: in vitro ADME
Description: In an identification study of metabolite was identified Compound A. Said compound is 2-(3-(6-methylpyridin-2-yl)-4-(quinolin-4-yl)-1H-pyrazol-1-yl)acetic acid and has the following formula: […]
Compound A was identified as the major metabolite of examples 9, 15, 20, 22, 24 and 26, among others.

[3] = Metabolic stability assay, human microsomes; assay type: in vitro ADME; settings: for microsomal CLint: human recombinant microsomes (Tebu-Xenotech)
Experimental: (§1) Metabolic Stability Assay
(§2) Human and rat recombinant microsomes from Tebu-Xenotech were employed in the assay. They content 0.5 mg/ml of protein. The following quantities were added to each well of a 96-well microplate.
(§3) Plates were incubated at 37° C. and 75 μL samples were taken at 0, 10, 20, 40 and 60 minutes. Samples were transferred to a microplate and 75 μl Acetonitrile were added for inactivating the microsomes, and 30 μl of H2O for improving the chromatographic conditions and kept at 4° C. When all the samples were taken the plate was centrifuged at […] for 30 min at 15° C. Supernatant was taken and injected in the UPLC-MS/MS.
(§4) Stationary phase: Reverse phase Acquity UPLC® BEH C18 1.7 μm (2.1 mm×50 mm) (Waters). Mobile phase: A: 0.1% formic; B:acetonitrile+0.1% formic acid. Flow: 0.6 ml/min. The chromatographic equipment employed was an UPLC QSM Waters Acquity. Compound concentrations were calculated from the UV peak areas. The response was linear in the range between 10 ng/ml and 0.3125 ng/ml. Metabolic stability was calculated from the logarithm of the remaining compound at each of the times evaluated.
(§5) The data will be fitted to the one phase exponential decay equation using GraphPad Prism® software. The half-life (t1/2) generated by the software will be reported. Intrinsic clearance will be calculated using the formula where, k=decay rate constant (min^−1).

[4] = Metabolic stability assay, rat microsomes; assay type: in vitro ADME; settings: for microsomal CLint: rat recombinant microsomes (Tebu-Xenotech), pH 7.4
Experimental: as §1, §2, §3, §4, §5

[5] = TGFβR-1 kinase, 50 μM ATP, read-out: IC50 range
[6] = TGF-β2 activated, p-SMAD3, read-out: IC50 range

Human TGFβR-1 kinase, sequence (P36897 34-503): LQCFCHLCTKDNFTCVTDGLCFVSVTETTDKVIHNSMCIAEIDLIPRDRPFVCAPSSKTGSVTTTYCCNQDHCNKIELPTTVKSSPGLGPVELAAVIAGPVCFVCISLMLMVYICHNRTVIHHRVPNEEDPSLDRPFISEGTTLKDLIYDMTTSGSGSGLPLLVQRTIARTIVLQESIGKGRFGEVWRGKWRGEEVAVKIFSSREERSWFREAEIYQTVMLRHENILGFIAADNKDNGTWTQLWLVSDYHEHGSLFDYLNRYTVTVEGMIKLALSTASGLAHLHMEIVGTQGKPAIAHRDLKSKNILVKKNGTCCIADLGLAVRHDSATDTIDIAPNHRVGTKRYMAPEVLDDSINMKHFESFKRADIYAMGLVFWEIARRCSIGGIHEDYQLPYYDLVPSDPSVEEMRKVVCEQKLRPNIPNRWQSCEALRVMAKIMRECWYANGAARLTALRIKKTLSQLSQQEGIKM
TGF-beta kinase (ALK-5), sequence (P36897 34-503): as above

Structure (SMILES): Cc1cccc(-c2nn(CC(=O)O)cc2-c2ccnc3ccccc23)n1 [Compound A, 2-(3-(6-methylpyridin-2-yl)-4-(quinolin-4-yl)-1H-pyrazol-1-yl)acetic acid]
IC50 (Human TGFβR-1 kinase; enzyme assay, read-out: IC50 against TGFβR-1): > 800 nM | IC50 (TGF-beta kinase (ALK-5); read-out: IC50 intracellular TGF-beta kinase activity (ALK-5)): > 5000 nM

Structure (SMILES): O=C(Cn1cc(-c2ccnc3ccccc23)c(-c2ccccn2)n1)NCc1ccccc1 [Example 1, N-benzyl-2-(3-(pyridin-2-yl)-4-(quinolin-4-yl)-1H-pyrazol-1-yl)acetamide]
IC50 (Human TGFβR-1 kinase; [5]): < 100 nM | IC50 (TGF-beta kinase (ALK-5); [6]): 100 to 500 nM

Structure (SMILES): O=C(Cn1cc(-c2ccnc3ccccc23)c(-c2ccccn2)n1)NCc1ccc(F)cc1 [Example 2, N-(4-fluorobenzyl)-2-(3-(pyridin-2-yl)-4-(quinolin-4-yl)-1H-pyrazol-1-yl)acetamide]
IC50 (Human TGFβR-1 kinase; [5]): 100 to 800 nM

Structure (SMILES): O=C(Cn1cc(-c2ccnc3ccccc23)c(-c2ccccn2)n1)NCc1ccc(Cl)cc1 [Example 3, N-(4-chlorobenzyl)-2-(3-(pyridin-2-yl)-4-(quinolin-4-yl)-1H-pyrazol-1-yl)acetamide]
IC50 (Human TGFβR-1 kinase; [5]): 100 to 800 nM

Structure (SMILES): O=C(Cn1cc(-c2ccnc3ccccc23)c(-c2ccccn2)n1)NCc1ccc(Br)cc1 [Example 4, N-(4-bromobenzyl)-2-(3-(pyridin-2-yl)-4-(quinolin-4-yl)-1H-pyrazol-1-yl)acetamide]
IC50 (Human TGFβR-1 kinase; [5]): 100 to 800 nM

Structure (SMILES): Cc1ccc(CNC(=O)Cn2cc(-c3ccnc4ccccc34)c(-c3ccccn3)n2)cc1 [Example 7, N-(4-methylbenzyl)-2-(3-(pyridin-2-yl)-4-(quinolin-4-yl)-1H-pyrazol-1-yl)acetamide]
IC50 (Human TGFβR-1 kinase; [5]): 100 to 800 nM

Structure (SMILES): Cc1cccc(-c2nn(CC(=O)NCc3ccccc3)cc2-c2ccnc3ccccc23)n1 [Example 9, N-benzyl-2-(3-(6-methylpyridin-2-yl)-4-(quinolin-4-yl)-1H-pyrazol-1-yl)acetamide]
IC50 (Human TGFβR-1 kinase; [5]): < 100 nM | AUC(0-inf) [1]: 27.7 ng·h/mL | AUC(0-t) [1]: 27 ng·h/mL | Cmax [1]: 62.8 ng/mL | Tmax [1]: 15 min | IC50 (TGF-beta kinase (ALK-5); [6]): < 100 nM | Major metabolite identified [2]: Compound A

Structure (SMILES): Cc1cccc(CNC(=O)Cn2cc(-c3ccnc4ccccc34)c(-c3ccccn3)n2)c1 [Example 10, N-(3-methylbenzyl)-2-(3-(pyridin-2-yl)-4-(quinolin-4-yl)-1H-pyrazol-1-yl)acetamide]
IC50 (Human TGFβR-1 kinase; [5]): 100 to 800 nM

Structure (SMILES): O=C(Cn1cc(-c2ccnc3ccccc23)c(-c2ccccn2)n1)NCc1cccc(F)c1 [Example 11, N-(3-fluorobenzyl)-2-(3-(pyridin-2-yl)-4-(quinolin-4-yl)-1H-pyrazol-1-yl)acetamide]
IC50 (Human TGFβR-1 kinase; [5]): 100 to 800 nM

Structure (SMILES): O=C(Cn1cc(-c2ccnc3ccccc23)c(-c2ccccn2)n1)NCc1cccc(Cl)c1 [Example 12, N-(3-chlorobenzyl)-2-(3-(pyridin-2-yl)-4-(quinolin-4-yl)-1H-pyrazol-1-yl)acetamide]
IC50 (Human TGFβR-1 kinase; [5]): 100 to 800 nM

Structure (SMILES): N#Cc1cccc(CNC(=O)Cn2cc(-c3ccnc4ccccc34)c(-c3ccccn3)n2)c1 [Example 13, N-(3-cyanobenzyl)-2-(3-(pyridin-2-yl)-4-(quinolin-4-yl)-1H-pyrazol-1-yl)acetamide]
IC50 (Human TGFβR-1 kinase; [5]): 100 to 800 nM

The next lines start with the values.

IC50 (Human TGFβR-1 kinase; [5]): 100 to 800 nM
Structure (SMILES): Cc1ccccc1CNC(=O)Cn1cc(-c2ccnc3ccccc23)c(-c2ccccn2)n1 [Example 14, N-(2-methylbenzyl)-2-(3-(pyridin-2-yl)-4-(quinolin-4-yl)-1H-pyrazol-1-yl)acetamide]

IC50 (Human TGFβR-1 kinase; [5]): < 100 nM | AUC(0-inf) [1]: 39.4 ng·h/mL | AUC(0-t) [1]: 35.1 ng·h/mL | Cmax [1]: 75.8 ng/mL | Tmax [1]: 15 min | IC50 (TGF-beta kinase (ALK-5); [6]): 100 to 500 nM | Major metabolite identified [2]: Compound A
Structure (SMILES): Cc1cccc(-c2nn(CC(=O)NCc3ccccc3C)cc2-c2ccnc3ccccc23)n1 [Example 15, N-(2-methylbenzyl)-2-(3-(6-methylpyridin-2-yl)-4-(quinolin-4-yl)-1H-pyrazol-1-yl)acetamide]

IC50 (Human TGFβR-1 kinase; [5]): 100 to 800 nM
Structure (SMILES): O=C(Cn1cc(-c2ccnc3ccccc23)c(-c2ccccn2)n1)NCc1ccccc1F [Example 16, N-(2-fluorobenzyl)-2-(3-(pyridin-2-yl)-4-(quinolin-4-yl)-1H-pyrazol-1-yl)acetamide]

IC50 (Human TGFβR-1 kinase; [5]): 100 to 800 nM
Structure (SMILES): Cc1cccc(-c2nn(CC(=O)NCc3ccccc3F)cc2-c2ccnc3ccccc23)n1 [Example 17, N-(2-fluorobenzyl)-2-(3-(6-methylpyridin-2-yl)-4-(quinolin-4-yl)-1H-pyrazol-1-yl)acetamide]

IC50 (Human TGFβR-1 kinase; [5]): < 100 nM
Structure (SMILES): CCc1cccc(-c2nn(CC(=O)NCc3ccccc3)cc2-c2ccnc3ccccc23)n1 [Example 18, N-benzyl-2-(3-(6-ethylpyridin-2-yl)-4-(quinolin-4-yl)-1H-pyrazol-1-yl)acetamide]

IC50 (Human TGFβR-1 kinase; [5]): < 100 nM | IC50 (TGF-beta kinase (ALK-5); [6]): 100 to 500 nM
Structure (SMILES): CCc1cccc(-c2nn(CC(=O)NCc3ccccc3C)cc2-c2ccnc3ccccc23)n1 [Example 19, 2-(3-(6-ethylpyridin-2-yl)-4-(quinolin-4-yl)-1H-pyrazol-1-yl)-N-(2-methylbenzyl)acetamide]

IC50 (Human TGFβR-1 kinase; [5]): < 100 nM | IC50 (TGF-beta kinase (ALK-5); [6]): < 100 nM | Major metabolite identified [2]: Compound A | % remanent (sampling time 60 min) [3]: 0.01% | microsomal CLint [3]: 216 µL/min/mg | % remanent (sampling time 60 min) [4]: 0.02% | microsomal CLint [4]: 381 µL/min/mg
Structure (SMILES): Cc1ccc(CNC(=O)Cn2cc(-c3ccnc4ccccc34)c(-c3cccc(C)n3)n2)cc1 [Example 20, N-(4-methylbenzyl)-2-(3-(6-methylpyridin-2-yl)-4-(quinolin-4-yl)-1H-pyrazol-1-yl)acetamide]

IC50 (Human TGFβR-1 kinase; [5]): 100 to 800 nM
Structure (SMILES): O=C(Cn1cc(-c2ccnc3ccccc23)c(-c2ccccn2)n1)NCc1ccccc1Cl [Example 21, N-(2-chlorobenzyl)-2-(3-(pyridin-2-yl)-4-(quinolin-4-yl)-1H-pyrazol-1-yl)acetamide]

IC50 (Human TGFβR-1 kinase; [5]): 100 to 800 nM
Structure (SMILES): O=C(Cn1cc(-c2ccnc3ccccc23)c(-c2ccccn2)n1)NCc1c(F)cccc1F [Example 23, N-(2,6-difluorobenzyl)-2-(3-(pyridin-2-yl)-4-(quinolin-4-yl)-1H-pyrazol-1-yl)acetamide]

IC50 (Human TGFβR-1 kinase; [5]): < 100 nM
Structure (SMILES): Cc1cccc(C)c1CNC(=O)Cn1cc(-c2ccnc3ccccc23)c(-c2ccccn2)n1 [Example 25, N-(2,6-dimethylbenzyl)-2-(3-(pyridin-2-yl)-4-(quinolin-4-yl)-1H-pyrazol-1-yl)acetamide]

IC50 (Human TGFβR-1 kinase; [5]): < 100 nM | IC50 (TGF-beta kinase (ALK-5); [6]): < 100 nM | % remanent (sampling time 60 min) [3]: 0.53% | microsomal CLint [3]: 505 µL/min/mg | % remanent (sampling time 60 min) [4]: 0.31% | microsomal CLint [4]: 600 µL/min/mg
Structure (SMILES): CCc1ccccc1CNC(=O)Cn1cc(-c2ccnc3ccccc23)c(-c2cccc(C)n2)n1 [Example 27, N-(2-ethylbenzyl)-2-(3-(6-methylpyridin-2-yl)-4-(quinolin-4-yl)-1H-pyrazol-1-yl)acetamide]

IC50 (Human TGFβR-1 kinase; [5]): < 100 nM | IC50 (TGF-beta kinase (ALK-5); [6]): 100 to 500 nM
Structure (SMILES): Cc1cccc(-c2nn(CC(=O)NCc3c(Cl)cccc3Cl)cc2-c2ccnc3ccccc23)n1 [Example 28, N-(2,6-dichlorobenzyI)-2-(3-(6-methylpyridin-2-yl)-4-(quinolin-4-yl)-1H-pyrazol-1-yl)acetamide]

IC50 (Human TGFβR-1 kinase; [5]): 100 to 800 nM
Structure (SMILES): O=C(Cn1cc(-c2ccnc3ccccc23)c(-c2ccccn2)n1)NCc1ccc(C(=O)O)cc1 [Example 29, 4-((2-(3-(pyridin-2-yl)-4-(quinolin-4-yl)-1H-pyrazol-1-yl)acetamido)methyl)benzoic acid hydrochloride]
